Test results: article PMC11513920, “Building Metabolically Stable and Potent Anti-HIV Thioether-Lipid Analogues of Tenofovir Exalidex: A thorough Pharmacological Analysis” (Journal of Medicinal Chemistry, 2024)
“And” between values parts separate entries of the source, which are not always exact repeats. Identical values can stand only once. Like-named read-outs stand apart in the source and are kept apart here.

Legend:
[1] = Mouse plasma pharmacokinetics after intravenous dose; assay type: in vivo, male C57BL/6 mice; conditions: i.v. 3 mg/kg; for k (terminal elimination rate constant): 3 mg/kg; for concentration at 0.1 h / concentration at 0.25 h / concentration at 0.5 h / concentration at 1 h / concentration at 2 h / concentration at 4 h / concentration at 6 h / concentration at 8 h: read-out: mean prodrug concentration in plasma; for Cmax at 8 h / Tmax at 8 h / AUC(0-t) at 8 h: prodrug; for AUC(0-t) at 8 h: read-out: AUC0–8h
Description: (§1) To compare the in vivo PK profiles to TXL and our previously reported drug lead 1 (Tables S19 and S26),[39] one group of male C57BL/6 mice were administered a single oral dose (p.o., 10 mg/kg) of 2a, 16g, or 16h (refer to Experimental Methods). Additionally, a separate group of mice were given a single intravenous dose (i.v., 3 mg/kg) of each prodrug to obtain plasma clearance (Cl), volume of distribution (Vd), and oral bioavailability data. Blood was sampled at 8 time points over 8 h (i.v.) or 24 h (p.o.) postdose, and plasma was isolated via centrifugation. Tissues (liver, kidney, and brain) were also harvested and homogenized at 3 time points over 24 h after oral dose. The concentrations of prodrug and TFV metabolite in each of these samples was then quantified using LC–MS/MS methodology.
(§2) Healthy male C57BL/6 mice (8–12 weeks old) weighing 20–30 g were procured from Global, India. Three mice were housed in each cage. Temperature and humidity were maintained at 22 ± 3 °C and 30–70%, respectively, and illumination was controlled to provide for 12 h light and 12 h dark cycles. Temperature and humidity were recorded by an autocontrolled data logger system. All animals were provided a laboratory rodent diet (Envigo Research private Ltd., Hyderabad). Reverse osmosis H2O treated with ultraviolet light was provided ad libitum.
(§3) Male mice were divided into two groups (n = 18 total, n = 9 per treatment group, n = 3 per time point, sparse sampling). One group was intravenously administered a solution of 2a, 16g, and 16h in 10% PEG-300, 10% Solutol HS-15, and 80% saline at 3 mg/kg with a dosing volume of 5 mL/kg. The second group was administered a solution of 2a, 16g, and 16h in 10% EtOH and 90% olive oil at 10 mg/kg via oral gavage with a dosing volume of 10 mL/kg.
(§4) Blood samples (approximately 60 μL) were collected from retro-orbital plexus under light isoflurane anesthesia such that the samples were obtained predose, as well as at eight time points post dose: 0.1, 0.25, 0.5, 1, 2, 4, 6, and 8 (i.v.) and 0.25, 0.5, 1, 2, 4, 8, 12, and 24 h (p.o.). Immediately after blood collection, plasma samples were harvested by centrifugation at 4000 rpm and 4 °C for 10 min and stored at −70 °C until LC–MS/MS analysis. Following blood collection from p.o. group, liver, kidney, and brain samples were collected (n = 3 per treatment group per time point) at 1, 4, and 24 h post dose. After isolation, tissue samples were rinsed three times with ice-cold saline and dried with blotting paper. Next, the tissue samples were homogenized using ice-cold PBS (pH = 7.4), and the resulting homogenates were stored below −70 °C until LC-MS/MS analysis. The total homogenate volume was 3 times the brain weight and 5 times the liver and kidney weight.
(§5) Areas under the concentration–time curves (AUC0–8h and AUC0–24h) were calculated via the linear trapezoidal rule[65] using GraphPad Prism v9. Furthermore, terminal elimination rate constants k were determined using linear regression (slope = −k) of the terminal portion of semilog-transformed concentration–time curves (Figures S44, S45, S47, S48, S50, and S51).

[2] = Mouse tissue (liver, kidney, brain) pharmacokinetics after oral dose; assay type: in vivo, male C57BL/6 mice; conditions: for TFV in brain tissue: brain, 1, 4 and 24 h after p.o. 10 mg/kg of prodrug, LLOQ 4.84 ng/mL (9.67 for 16h); for concentration at 1 h / concentration at 4 h / concentration at 24 h / Cmax at 24 h / Tmax / AUC(0-t) at 24 h: male, C57BL/6, mouse, po; for concentration at 1 h / concentration at 4 h / concentration at 24 h / Cmax at 24 h / Tmax / AUC(0-t) at 24 h / mean prodrug concentration in brain: p.o. 10 mg/kg; for Cmax at 24 h / Tmax / AUC(0-t) at 24 h: prodrug; for AUC(0-t) at 24 h: read-out: AUC0–24h; for concentration at 24 h / mean prodrug concentration in brain: 24 h; for mean prodrug concentration in brain: BLQ = below limit of quantitation
Description: as §1, §2, §3, §4, §5

[3] = Cellular cytotoxicity (cell viability, CellTiter 96 or resazurin); conditions: human, CC50, HEK293T cells, compounds formulated with HSA (5:1)
Description: Second, HIV IC50 and cellular CC50 were determined with a pseudoviral, whole (HEK293T) cell, nonreplicative HIV assay, using the HIV-1 subtype C strain MJ4 (refer to Experimental Methods). To account for the unique amphiphilic properties of TXL and the novel HTP-based prodrugs, all compounds were formulated in a human serum albumin (HSA) solution (5:1 drug:protein).
Assessment of cytotoxicity and antiviral activity of all final compounds in vitro was conducted according to previously reported procedures.[39] In summary, human embryonic kidney (HEK293T) cells maintained in high glucose (25 mM), Dulbecco’s modified Eagle’s medium (DMEM) supplemented with fetal bovine serum (10%), sodium pyruvate (1 mM), L-glutamine (2 mM), HEPES (25 mM), and gentamicin (50 μg/mL) were used for determinations. The cells were maintained in an incubator at 37 °C under 5% CO2 in a humidified atmosphere. For both cytotoxicity and antiviral screening, all compounds were evaluated in duplicate in at least two independent experiments. All final compounds were formulated with human serum albumin (HSA, 5:1 compound to HSA molar ratio) and subsequently diluted with complete DMEM to 200 μM. Fifty microliters of test compound serial dilutions (3-fold) were prepared in 96-well culture plates, after which 50 μL of HEK293T cells (2 × 10^4 cells/well) was added. […] Cytotoxicity was then assessed by quantifying cell viability using the CellTiter 96 Aqueous One Solution Cell Proliferation Assay (Promega, Madison, WI) or resazurin sodium salt (cat# R7017, Merck, Darmstadt, Germany).[61] […] Antiviral activity was then assessed using a single-cycle, nonreplicating, envelope deleted HIV pseudoviral in vitro assay.[62],[63] The assay relies on the introduction of the firefly luciferase gene into HEK293T cells through infection with HIV-like viral particles, containing Reverse Transcriptase (RT) and Integrase (IN) from the HIV-1 subtype C strain MJ4.[64] The expression of the luciferase in the cells is directly proportional to the level of infection by the HIV-like viral particles and can be used to assess the inhibition of HIV-1 RT and IN. To evaluate anti-HIV activity, 3-fold serial dilutions of all final compounds were prepared in 50 μL over the noncytotoxic concentration range (as determined from the cytotoxicity screens described above) in 96-well culture plates. HEK293T cells (2 × 10^4 cells/well) and HIV-like viral particles, standardized to produce a luminescence signal of 1 × 10^6 relative light units (RLUs) in the growth medium only control, were combined, and 50 μL was added to the wells containing serially diluted test compounds. […] The expression of luciferase was subsequently quantified by adding 100 μL of the Bright-Glo Luciferase Assay substrate (Promega, Madison, WI) to each well of the 96-well plates. After incubation at rt for 3 min, luminescence was quantified on the GloMax Explorer Multimode Microplate Reader (Promega, Madison, WI).

[4] = Mouse plasma stability; assay type: in vitro ADME; conditions: for mouse plasma t1/2: 3 μM, 37 °C, 240 min course; for remaining at 4 h, 3 μM / half-life at 3 μM: male, BALB/C, mouse, plasma; for half-life at 3 μM: read-out: in vitro mouse plasma stability t1/2
Description: Human plasma (lithium heparin (LiHep) mixed, gender pooled, 0.2 μm filtered) and mouse plasma (BALB/C, LiHep mixed, male pooled, 0.2 μm filtered) were purchased from BioIVT. Procaine (Sigma-Aldrich) served as a positive control for both human and mouse plasma experiments. […] Next, the human or mouse plasma (994 μL) was aliquoted into 1.5 mL Eppendorf tubes with duplicates (reactions A and B) being prepared for each compound. The plasma was then incubated at 37 °C for 10 min. […] This procedure provided duplicate experiments with a final volume of 1000 μL (<0.2% organic solvent content) and a final test compound concentration of 3 μM. Aliquots (100 μL) were removed from each reaction mixture at 0, 30, 60, 120, and 240 min time intervals and quenched with 150 μL of cold ISTD solution (2 μM 7-ethoxy-d5-coumarin in MeOH). […] The positive control reaction was conducted at a final volume of 1000 μL for a single run of each time point. Finally, the negative control experiment was conducted with test compounds in Dulbecco’s phosphate buffered saline without calcium and magnesium (DPBS, Fisher Scientific, 143 μL) and analyzed at the 240 min time point.
Plasma Stability Assay Setup Example
Test Compound: 994 µL Human or Mouse Plasma + 6.0 µL TC (500 µM, Vial A).
994 µL Human or Mouse Plasma + 6.0 µL TC (500 µM, Vial B).
Positive Control: 994 µL Human or Mouse Plasma + 6.0 µL Procaine (500 µM).
Negative Control: 142 µL DPBS (1X, pH 7.1-7.3) + 0.9 µL TC (500 µM).
Quenching Mixture: 150 µL MeOH with ISTD (2 µM d5-7-ethoxycoumarin).
Final Volume After Quenching: 250 µL (100 µL from reaction mixture and 150 µL quencher
solution; ISTD final concentration of 1.2 µM). […]

[5] = tested on: HepaRG cells; assay: HepaRG cellular uptake; conditions: for mean prodrug concentration in HepaRG cells: 20 µM
Description: Naturally, due the metabolic complexity of HepaRG cells, we specifically analyzed prodrug cellular uptake and stability, as represented by Cmax and intrinsic clearance (Clint,u) accordingly (Figure 7 and Table 9).
The HepaRG cell line (HPRGC10, Thermo Fisher Scientific) was used to evaluate the cellular permeability and metabolic stability for select final compounds in vitro. The cells were initially thawed with working media composed of HepaRG Thaw, Plate, & General Purpose Medium Supplement (HPRG670), Williams Medium E (100 mL), and GlutaMax (1 mL), all purchased from Thermo Fisher Scientific. […] After the thawing medium was aspirated from each well, the cells were cultured for an additional 6 days with working media consisting of HepaRG Maintenance/Metabolism Medium Supplement (HPRG720), Williams Medium E (500 mL), and GlutaMax (1 mL), all purchased from Thermo Fisher Scientific. Upon completing the 7-day culture period, HepaRG cells were plated in enough wells to allow for duplicate analysis of prodrugs in two independent cellular uptake or metabolic stability experiments. All studied compounds were formulated with human serum albumin (HSA, 5:1 compound to HSA molar ratio) and subsequently diluted to a 20 μM final concentration with assay medium composed of serum-free INVITROGRO HI Medium and TORPEDO Antibiotic Mix purchased from BioIVT. For cellular uptake determinations, the maintenance/metabolism medium was first aspirated from each well, and then the plated cells were spiked with 1.0 mL of test compound stock solution. Subsequently, the plate was incubated at 37 °C under 5% CO2 environment over the desired time course (seven data points/compound). Blank wells not treated with prodrug were included in assay runs as controls and initial time points (0 min). At each time point, the test compound solution was removed from the appropriate wells, and the plated cells were washed with 1.0 mL of DPBS twice. The HepaRG cells were then extracted with 500 μL of cold ISTD solution (1 μM 7-ethoxy-d5-coumarin in 70/30 MeOH/H2O), and the quenched aliquots were centrifuged at 15,000 g for 10 min at 4 °C. […] After obtaining prodrug Cmax and Tmax values from the cellular uptake assay, HepaRG metabolic stability was then assessed. Following the initial 7-day culture procedure, the maintenance/metabolism medium was aspirated from each well, and the plated cells were spiked with 1.0 mL of test compound stock solution. […] The test compound solution was then removed from each well and replaced with untreated dilution medium (i.e., serum-free INVITROGRO HI Medium and TORPEDO Antibiotic Mix), initializing the stability determination. The HepaRG plate was once more incubated at 37 °C under 5% CO2 atmosphere over the desired time course (nine data points/compound), and sample preparation and analysis were handled in identical fashion to cellular uptake experiments.

[6] = brain, read-out: mean prodrug concentration in brain
[7] = kidney, read-out: mean prodrug concentration in kidney
[8] = liver, read-out: mean prodrug concentration in liver
[9] = relative percent remaining at 240 min

CCCCCCCCCCCCCCCCSCCCOP(=O)(O)CO[C@H](C)Cn1cnc2c(N)ncnc21.N [2a]
k (terminal elimination rate constant) [1]: 0.4666 and 0.467 | Vd at 8 h ([1]; male, C57BL/6, mouse, iv): 18.9 L/kg | clearance ([1]; male, C57BL/6, mouse, iv): 147 mL/min/kg | half-life ([1]; male, C57BL/6, mouse, iv): 1.49 h | concentration at 0.1 h ([1]; male, C57BL/6, mouse, iv): 2060 ng/mL | concentration at 0.25 h ([1]; male, C57BL/6, mouse, iv): 320 ng/mL | concentration at 0.5 h ([1]; male, C57BL/6, mouse, iv): 134 ng/mL | concentration at 1 h ([1]; male, C57BL/6, mouse, iv): 57.1 ng/mL | concentration at 2 h ([1]; male, C57BL/6, mouse, iv): 8.68 ng/mL | concentration at 4 h ([1]; male, C57BL/6, mouse, iv): 3.75 ng/mL | concentration at 6 h ([1]; male, C57BL/6, mouse, iv): 3.41 ng/mL | concentration at 8 h ([1]; male, C57BL/6, mouse, iv): 1.21 ng/mL | Cmax at 8 h ([1]; male, C57BL/6, mouse, iv): 2060 ng/mL | Tmax at 8 h ([1]; male, C57BL/6, mouse, iv): 6 min | AUC(0-t) at 8 h ([1]; male, C57BL/6, mouse, iv): 340 ng·h/mL | TFV in brain tissue [2]: BLQ | concentration at 1 h [2, 6]: 43.8 ng/mL | concentration at 4 h [2, 6]: 2.19 ng/mL | concentration at 1 h [2, 7]: 581 ng/mL | concentration at 4 h [2, 7]: 385 ng/mL | concentration at 24 h [2, 7]: 44.4 ng/mL | concentration at 1 h [2, 8]: 1250 ng/mL | concentration at 4 h [2, 8]: 395 ng/mL | concentration at 24 h [2, 8]: 3.95 ng/mL | Cmax at 24 h ([2]; brain): 43.8 ng/mL | Tmax ([2]; brain): 1 h | AUC(0-t) at 24 h ([2]; brain): 69 ng·h/mL | Cmax at 24 h ([2]; kidney): 581 ng/mL | Tmax ([2]; kidney): 1 h | AUC(0-t) at 24 h ([2]; kidney): 5740 ng·h/mL | Cmax at 24 h ([2]; liver): 1250 ng/mL | Tmax ([2]; liver): 1 h | AUC(0-t) at 24 h ([2]; liver): 6450 ng·h/mL | mean prodrug concentration in brain [2]: BLQ | CC50 at 48 h [3]: 50 µM | mouse plasma t1/2 [4]: > 4 h | remaining at 4 h, 3 μM [4, 9]: 95% | half-life at 3 μM [4]: > 4 h | mouse plasma % remaining [4, 9]: > 95% | mean prodrug concentration in HepaRG cells ([5]; 0.5 h): 467.27 ng/mL | mean prodrug concentration in HepaRG cells ([5]; 1 h): 530.17 ng/mL | mean prodrug concentration in HepaRG cells ([5]; 2 h): 676.9 ng/mL | mean prodrug concentration in HepaRG cells ([5]; 3 h): 827.97 ng/mL | mean prodrug concentration in HepaRG cells ([5]; 5 h): 1004.64 ng/mL | mean prodrug concentration in HepaRG cells ([5]; 7 h): 994.36 ng/mL

C[C@H](Cn1cnc2c(N)ncnc21)OCP(=O)(O)OCCCSCCCCCCCCCCCCc1ccc(F)cc1.N [16g]
k (terminal elimination rate constant) [1]: 0.4057 and 0.406 | Vd at 8 h ([1]; male, C57BL/6, mouse, iv): 19.9 L/kg | clearance ([1]; male, C57BL/6, mouse, iv): 134 mL/min/kg | half-life at 8 h ([1]; male, C57BL/6, mouse, iv): 1.71 h | concentration at 0.1 h ([1]; male, C57BL/6, mouse, iv): 863 ng/mL | concentration at 0.25 h ([1]; male, C57BL/6, mouse, iv): 315 ng/mL | concentration at 0.5 h ([1]; male, C57BL/6, mouse, iv): 227 ng/mL | concentration at 1 h ([1]; male, C57BL/6, mouse, iv): 71.5 ng/mL | concentration at 2 h ([1]; male, C57BL/6, mouse, iv): 21.6 ng/mL | concentration at 4 h ([1]; male, C57BL/6, mouse, iv): 12.1 ng/mL | concentration at 6 h ([1]; male, C57BL/6, mouse, iv): 7.5 ng/mL | concentration at 8 h ([1]; male, C57BL/6, mouse, iv): 3.12 ng/mL | Cmax at 8 h ([1]; male, C57BL/6, mouse, iv): 863 ng/mL | Tmax at 8 h ([1]; male, C57BL/6, mouse, iv): 6 min | AUC(0-t) at 8 h ([1]; male, C57BL/6, mouse, iv): 373 ng·h/mL | TFV in brain tissue [2]: BLQ | concentration at 1 h [2, 6]: 3.24 ng/mL | concentration at 4 h [2, 6]: 5.74 ng/mL | concentration at 1 h [2, 7]: 310 ng/mL | concentration at 4 h [2, 7]: 602 ng/mL | concentration at 24 h [2, 7]: 25.4 ng/mL | concentration at 1 h [2, 8]: 5330 ng/mL | concentration at 4 h [2, 8]: 4810 ng/mL | concentration at 24 h [2, 8]: 24.8 ng/mL | Cmax at 24 h ([2]; brain): 5.74 ng/mL | AUC(0-t) at 24 h ([2]; brain): 13.5 ng·h/mL | Cmax at 24 h ([2]; kidney): 602 ng/mL | AUC(0-t) at 24 h ([2]; kidney): 7650 ng·h/mL | Cmax at 24 h ([2]; liver): 5330 ng/mL | Tmax ([2]; liver): 1 h | AUC(0-t) at 24 h ([2]; liver): 63600 ng·h/mL | mean prodrug concentration in brain [2]: BLQ | CC50 at 48 h [3]: > 100 µM | mouse plasma t1/2 [4]: > 4 h | remaining at 4 h, 3 μM [4, 9]: > 95% | half-life at 3 μM [4]: > 4 h | mean prodrug concentration in HepaRG cells ([5]; 0.5 h): 124.04 ng/mL | mean prodrug concentration in HepaRG cells ([5]; 1 h): 162.75 ng/mL | mean prodrug concentration in HepaRG cells ([5]; 2 h): 178.18 ng/mL | mean prodrug concentration in HepaRG cells ([5]; 3 h): 209.81 ng/mL | mean prodrug concentration in HepaRG cells ([5]; 5 h): 203.98 ng/mL | mean prodrug concentration in HepaRG cells ([5]; 7 h): 229.08 ng/mL | HepaRG Cmax ([5]; 20 μM, HSA formulation 5:1, recorded after 3 h incubation): 209.8 ± 0.2 ng/mL
